According to patent publication US5312816A, “Method of combatting osteoporosis in mammalian subjects, utilizing organic boron compounds” (priority 1993, dated 1994):

Tests used:
Calcium = experiment: Serum and urine calcium levels in vivo; conditions: Cf1 male mice, 8 mg/kg/day I.P. 14 days, N=6
Acid phosphatase = experiment: Mouse hepatic lysosomal acid phosphatase activity; format: biochemical; conditions: Table V; mouse hepatic, 60 min incubation
Source text: 1. Cf1 male mouse hepatic 10% homogenates in 0.25M sucrose+0.001MEDTA,pH 7.2.
Lysosomal Enzymes - free and total [triton X-100].
1. Acid phosphatase -beta glycerol-3-phosphate, pH 5.0, released IP 720 nm.
Acid phosphatase activity -

Cf1 male mice = experiment: Writhing reflex, 0.6% acetic acid; format: in vivo; conditions: Mus musculus, ip; Table IV
[1] = biological target: Clostridium histolyticum Collagenase Type I; experiment: Commercial collagenase type I; format: biochemical; conditions: Table IX; commercial enzyme preparation
Source text: 3. Collagenase I, Clostridium histolyticum, bone, skin, tendon, blood vessel, dentine, GI. substrate: rat collagen, N-[propionate-2-3-^3 H] propionylated measured as dpm released.

Pg-E2 synthesis = experiment: 3H-Arachidonic acid conversion to Pg-E2, CF1 hepatic liver; format: biochemical, mouse
Aryl sulphatase [2] = experiment: Mouse macrophage aryl sulphatase activity; format: cell-based; conditions: Table VII; mouse macrophage cultured cells, 60 min incubation; read-out: Aryl Sulphatase IC50
Source text: Mouse macrophages J774A.1 BALB/c

Hydroxyproline = experiment: Serum and urine hydroxyproline levels in vivo; conditions: Cf1 male mice, 8 mg/kg/day I.P. 14 days, N=6
[3] = biological target: T1, Porcine Pancreatic Elastase (Sus scrofa, UniProt P00772); experiment: Porcine pancreatic elastase activity in vitro; format: biochemical; conditions: Table IX; commercial enzyme preparation
T1 construct: purchased; host or cells: porcine pancreas
T1 sequence (P00772 27-266): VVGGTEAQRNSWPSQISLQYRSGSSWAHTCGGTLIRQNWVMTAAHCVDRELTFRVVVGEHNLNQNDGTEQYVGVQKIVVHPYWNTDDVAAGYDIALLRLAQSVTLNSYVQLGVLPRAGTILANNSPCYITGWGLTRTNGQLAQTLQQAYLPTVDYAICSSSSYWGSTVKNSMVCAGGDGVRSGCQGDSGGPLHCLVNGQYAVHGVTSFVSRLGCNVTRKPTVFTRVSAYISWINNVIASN
Source text: 2. Elastase- N-succinyl-L-alanyl-L-alanine-p-nitroanilide, pH 8.0, p-nitro anilide 410 nm.

Aryl sulphatase [4] = experiment: Human osteoporosis fibroblasts aryl sulphatase activity; format: cell-based
Source text: 3. Aryl sulphatase- p-nitrocatechol sulfate, pH
5. 8 p-nitro-catechol product 510 nm.

SMILES: CCCCCCCCCCCCCCCC[N+](C)(C)[BH2-]C(=O)O [Compound 7, N,N-Dimethylhexadecylamine-carboxyborane]
- Calcium urine (Calcium): 80.7 % Control
- IC50 (Acid phosphatase): 8.86 µM
- response vs control in vivo at 20 mg/kg (Cf1 male mice): 54%
- IC50 [1]: 615 µM
- hepatic Pg-E2 synthesis reduced (Pg-E2 synthesis): 32%
- 3H-Arachidonic acid conversion to Pg-E2 reduced (Pg-E2 synthesis; CF1 hepatic liver): 43%
- IC50 (Aryl sulphatase [2]): 9.71 µM
- Hydroxyproline serum (Hydroxyproline): 84.1 % Control
- Hydroxyproline urine (Hydroxyproline): 28.7 % Control
- IC50 [3]: 49.7 µM
- IC50 (Aryl sulphatase [4]; Table VIIIA, osteoporosis fibroblasts in vitro, read-out: Aryl Sulfatase IC-50): 9.01 µM
- IC50 (Aryl sulphatase [4]; Table X, human osteoporosis fibroblasts, read-out: Aryl Sulphatase IC50): 9.01 µM
